From patent publication US20070077583A1, “Alpha enolase-directed diagnostics and therapeutics for cancer and chemotherapeutic drug resistance” (Aurelium BioPharma, Inc., priority 2005, published 2007)
“Also recorded” adds a separate entry of the source.

Key:
SW-480 cells = test: cells; format: cell-based, human
Protocol: The colorectal adenocarcinoma cell line SW-480 was treated with α-enolase-directed siRNA using the procedures described above.

MDA-435 cells = test: cells; format: cell-based, human
Protocol: Similar tests utilizing α-enolase siRNA were performed on MDA-435 breast adenocarcinoma cells. Chemosensitivity to various drugs was determined for the MDA-435 cells as described above.

[1] = test system: MCF-7 and MDA-231 breast cancer cells; test: BrdU incorporation cell proliferation assay, MCF-7 and MDA-231; format: cell-based, human; details: MCF-7 and MDA-231 cells
Protocol: A determinant of cell division and viability, pre-requisites for angiogenesis, was assayed by BrdU incorporation in two breast cancer cell lines.

[2] = test system: MDA-435 breast cancer cells; test: BrdU incorporation DNA synthesis, MDA-435; format: cell-based, human; details: MDA-435 cells
From the text: The effect of Eno-1 siRNA silencing on tumor cell growth was even more dramatic in the MDA-435 breast cancer cells, where the viability in cells that were transfected with Eno-1 siRNA dropped to only about 17% of the control level (FIG. 40). In these cells the levels of silencing of α-enolase were also quite high, reaching 14% of the α-enolase levels present in the control transfected cells 6 days post-transfection (FIG. 41).

A549 cells = test: Transwell filter cell invasion assay, A549; format: cell-based, human
Protocol: Transwell filter chamber assays were performed using a Chemicon QCM 96-well invasion kit according to the manufacturer's instructions (Chemicon International, Inc., Temecula, Calif.). Eno-1 and control siRNA transfected cells were harvested 2 days post-transfection, resuspended in media without serum and seeded in 96-well Matrigel-coated transwell filter plates at 50,000 cells per well. Medium with 10% serum was used as a chemo-attractant in a feeder tray. The inserts were placed into the feeder tray, and the cells were subsequently incubated for 16 hours at 37° C. in an incubator containing a 5% CO2 atmosphere. Cells that invaded through the filter to the bottom tray were quantitated using the CyQUANT-GR dye according to the manufacturer's instructions (Molecular Probes, Eugene, Oreg.).
These assays test the ability of a cell to move across membranes, which is a hallmark of metastatic potential. To confirm the results shown in FIGS. 27A and 27B, the highly metastatic cell line MDA-MB-435 was transfected with a vector expressing the α-enolase siRNA and subjected to the transwell filter assay (FIGS. 28 and 29, respectively).

MCF-7 cells = test: Annexin-V apoptosis assay, MCF-7; format: cell-based, human; details: MCF-7 cells vs control siRNA
Protocol: Apoptotic cells were measured following incubation with siRNAs. This assay was performed to determine the number of cells that were now susceptible to chemotherapeutic drugs. Cells transfected with siRNA were seeded in Lab-Tek 16-well chamber slides (Electron Microscopy Sciences, Hatfield, Pa.) at 10^4 cells/well 48 hrs post-transfection. Apoptosis was determined 16 hours later by annexin-V staining using the Annexin-V FLUOS kit (Roche, Ltd., Basel, CH) following the manufacturer's instructions. Slides were observed under a fluorescence microscope and images were taken using an Olympus digital camera and the Q-Capture software (QImaging, Burnaby, BC, CA).

MCF-7/ADR xenografts = MCF-7/ADR xenografts in nude mice; format: in vivo; details: 3 μg daily for 16 days, with chemotherapeutic drugs
Protocol: In further studies, the efficacy of a α-enolase-targeted therapeutic in treating an MDR mammary adenocarcinoma cells (MCF/AR) is assessed. Briefly, male […] nude mice 5-7 weeks old, weighing 18 g-22 g are used for the MCF-7/ADR xenografts. Mice receive a subcutaneous (s.c.) injection of the cells using 5×10^5 cells/inoculation under the shoulder. When the s.c. tumor is approximately 5.5 mm in size, mice are randomized into treatment groups of 4 including controls and groups receiving taxol or doxorubicin, alone (4 mg/kg), intraperitoneally (i.p.) every 2 days, α-enolase siRNA alone (3 μg daily for 16 days), or both taxol and α-enolase siRNA (3 μg daily for 16 days for each treatment). […] The animal's weight is measured every 4 days. Tumor growth starting on the first day of treatment is measured and the volume of the xenograft is monitored every 4 days. The mice are anaesthetized and sacrificed when the mean tumor weight is over 1 g in the control group. Tumor tissue is excised from the mice and its weight is measured. […]
In further studies, the efficacy of a α-enolase-targeted therapeutic in treating an mammary adenocarcinoma cells (MCF-7) is assessed. […] The animal's weight is measured every 4 days. Tumor growth starting on the first day of treatment is measured and the volume of the xenograft is monitored every 4 days. […] Tumor tissue is excised from the mice and its weight is measured. […]

Substance: α-enolase siRNA: siRNA duplex targeting human α-enolase mRNA; sense 5′-GGCUGUUGAGCACAUCAAUtt-3′ (SEQ ID NO: 1), antisense SEQ ID NO: 2; Ambion (antisense AUUGAUGUGCUCAACAGCC; bought from Ambion, sense has tt overhang, further chemistry not given here)
- decrease in cell viability (SW-480 cells): 50%
- cell viability, of the control level (MDA-435 cells): about 17%
- decrease in cell proliferation rates (BrdU) [1]: 40-50%
- decrease in DNA synthesis [2]: 50%
- invasion across membranes (A549 cells): reduced the invasion
- Annexin-V positive cells (MCF-7 cells): Annexin-V positive cells were detected; also recorded: substantial amount of Annexin-V-positive cells
- total cell number in tumors vs control siRNA (MCF-7/ADR xenografts): lower
- tumor weight vs control siRNA (MCF-7/ADR xenografts): smaller tumors by weight
